The values that follow are results of earlier work, collected in patent US7517545B2, “Reduced-calorie fats containing behenic acid and process of making thereof” (Council of Scientific & Industrial Research, priority 1997, dated 2009).

For the series the following is noted: feed study on rats.

On to `CCCCCCCCCCCCCCCCCCCCCCOC(COC(=O)CCCCC)COC(=O)CCCCC` [2-behenyl-1,3-dicaproyl glycerol], for which the “absorption of the structured triglycerides vs other oils” value was “significantly lower” and the “excretion into feces vs other oils” value is listed as “higher than other oils”.
